Where a SMILES comes first, the peptide text is derived from it.
Tests used:
eIF4E = biological target: T1, eIF4E (Homo sapiens, UniProt P06730); assay: Western blot of endogenous eIF4E (and eIF4A, eIF4G, FITC) in HeLa cells; assay type: cell-based; conditions: 3 h, result in words; for eIF4E degradation, PROTAC versus individual warheads: 10 µM
T1 construct: assessed the effects on the endogenous levels of eIF4E; endogenous in cells; host or cells: HeLa
Method: Western blot procedures for cell-based assays
Three washes with 1 mL PBS were performed before harvesting cells with a cell lifter. The cells were frozen in liquid nitrogen and stored at -70°C. The lysis buffer comprised 50 mM Tris-HCl (pH 7.5), 150 mM NaCl, 1% Triton-X, 1% SDS, 1 μL benzonase and one tablet of the Pierce TM Protease Inhibitor Tablets, EDTA-free (ThermoFisher Sceintific) in PBS except for HA-tag and Myc-tag IP. As for HA-tag and Myc-tag IP, the lysis buffer consisted of 50 mM Tris-HCl (pH 7.5), 150 mM NaCl, 1 mM EDTA, 1% IGEPAL CA-630, 10% glycerol, 20 μM PMSF, 1 mM DTT, and a single Protease Inhibitor Tablet in PBS.
The cells were lysed in 35 μL lysis buffer at 4°C by vortexing every 10 min over a period of 90 min. Protein concentration in the cell lysate was measured by Bradford assay.
Lysates were immunoprecipitated in addition to inputs when appropriate. SDS-PAGE and immunoblotting analysis were performed subsequently. […]
CellTiter-Glo2.0 Cell Viability Assay […]
A 13-point serial dilution series of 0.163 μM –
24.4 μM of each peptide dissolved in DMSO was dispensed with the highest concentration of DMSO at less than 0.5%. Three replicates were run per condition. The assay plate was incubated for 3 hr or 8 hr at 37°C, 5% CO 2. Following this, the liquid on the assay plate was removed using the Bluewasher. […]
Comparison of CP-eIFTerminator peptides and warheads in HeLa cells
HeLa cells were seeded in 6 cm dishes at a cell density of 1.5 x10^6 per dish. After overnight incubation at 37°C, 5% CO 2, cells were treated with […] along with 10 μM of respective cell-penetrating peptides. Peptides were reconstituted in water immediately before addition to the cell culture. An equal volume of water was added as a negative control.
Cells were harvested 3 hr after peptide incubation at 37°C, 5% CO 2 for western blot analysis.
Anti-actin, anti-eIF4EA, anti-eIF4E, anti-eIF4G, and anti-FITC antibodies, as well as […]
secondary IgG in Table 3 were used for Western blot.
Time course of CP-eIFTerminator4 in HeLa cells
0.5 x 10^6 HeLa cells were seeded in 35 mm dishes. A time course experiment was initiated after overnight incubation at 37°C, 5% CO 2. For each time point (0.5, 3, 6, 12, 24 hr), cells were treated with fresh medium containing 100 ng/mL EGF along with 20 μM CP-eIFTerminator4 or water. All dishes were harvested at the same time, after varying incubations with the peptide.
Titration of CP-eIFTerminator4 in HeLa and U-2 OS cells […]
Immediately after this, 2.5 μM, 10 μM, or 50 μM CP-eIFTerminator4 was added to U-2 OS cells. 5 μM, 10 μM, or 20 μM CP-eIFTerminator4 was added in the case of HeLa cells. […]
15022) or 50 μM chloroquine (Cell Signaling Technology, Cat. No.: 14774S) and incubated for 4 hr at 37 °C, 5% CO 2. […] The cell lysates were analysed by western blot. […]

HeLa cells = assay: CellTiter-Glo2.0 cell viability assay; assay type: cell-based; conditions: for viable cells (lowest): concentrations of 16.10 µM or higher
Method: Supplementary Figure 5. Characterisation of cytotoxicity effects of CP-eIFTerminators and […]
A. Measurement of cell viability (%) in HeLa cells following 3-hr treatments with cell-penetrating peptides. A Cell Titer-Glo2.0 cell viability assay was performed to assess viability of HeLa cells following a 3-hr treatment with a dilution series of each CP-eIFTerminator or parental warhead (CP-CBLock or CP-eIF4G1-D5S). The concentration range of each peptide in the 13-point serial dilution was 0.16-24.4 μM.
Data on CP-eIFTerminator2 are not shown as it was insoluble (n = 3, mean ± Standard error of the mean (SEM)).
B. Measurement of cell viability (%) in HeLa cells following 8 hr treatments with cell- […]
viability of HeLa cells following an 8-hr treatment with a dilution series of each CP-eIFTerminator, CP-CBLock, or CP-eIF4G1-D5S. The concentration range of each peptide in the 13-point serial dilution was 0.16-24.4 μM. CP-eIFTerminator2 was not
(1 picture or pasted object on this page, not shown here)
MgCl2. After the liquid was removed, 30 μL 2x LDS mix (prepared as described above) was used to elute the IP samples. The samples were boiled at 92°C for 10 min and 28 μL were loaded on a 4-12% Bis-Tris SDS-PAGE gel, along with the whole cell lysates that were prepared in 75 μL RIPA buffer. The gel was subsequently transferred and western blotted.
Antibodies included anti-actin, anti-HA, anti-K48 antibodies as primaries, as well as IRDye800CW goat anti-mouse IgG secondary antibody and IRDye680LT goat anti-rabbit […]
CellTiter-Glo2.0 Cell Viability Assay
Cells were seeded onto a Greiner 384 small volume plate using a Multidrop TM Combi Reagent Dispenser (Thermo Scientific). The seeding density was 2000 cells/well in a volume of 15 μL per well. After incubating the 384-well plate overnight at 37°C, 5% CO 2, the medium on the plate was removed using a Bluewasher (Blue Cat Bio). […] The plate was read using a PHERAstar FSX (BMG Labtech). Raw data were exported from the Pherastar as a Microsoft Excel file and analysed in Excel, and the processed data were plotted in GraphPad Prism v9.5.1. […]

T1 sequence (P06730 whole entry): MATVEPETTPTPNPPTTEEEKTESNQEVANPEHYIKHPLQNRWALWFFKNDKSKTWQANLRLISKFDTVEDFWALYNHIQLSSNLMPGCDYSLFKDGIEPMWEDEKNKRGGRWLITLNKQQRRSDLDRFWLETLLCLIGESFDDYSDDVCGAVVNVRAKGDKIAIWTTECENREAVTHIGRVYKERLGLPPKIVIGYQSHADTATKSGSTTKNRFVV

| Molecule | eIF4E degradation, PROTAC versus individual warheads (eIF4E) | effect on eIF4A1, eIF4E and eIF4G1 levels (eIF4E) | viable cells (lowest) (HeLa cells; 3 h post-peptide treatment) [%] | viable cells (lowest) (HeLa cells; 8 h post-peptide treatment) [%] | concentration at which cytotoxicity was exhibited (HeLa cells; CellTiter-Glo2.0, 0.16–24.4 µM, 3 h and 8 h, 100 ng/mL EGF, n = 3) [µM] |
| --- | --- | --- | --- | --- | --- |
| CC[C@H](C)[C@H](NC(=O)[C@H](CCCCN)NC(=O)[C@@H](NC(=O)[C@H](CCC(N)=O)NC(=O)[C@@H](N)CCCNC(=N)N)[C@@H](C)CC)C(=O)N[C@@H](Cc1c[nH]c2ccccc12)C(=O)N[C@@H](Cc1ccccc1)C(=O)N[C@@H](CCC(N)=O)C(=O)N[C@@H](CC(N)=O)C(=O)N[C@@H](CCCNC(=N)N)C(=O)N[C@@H](CCCNC(=N)N)C(=O)N[C@@H](CCSC)C(=O)N[C@@H](CCCCN)C(=O)N[C@@H](Cc1c[nH]c2ccccc12)C(=O)N[C@@H](CCCCN)C(=O)N[C@@H](CCCCN)C(=O)NCC(=O)NCC(=O)N[C@@H](CO)C(=O)N[C@@H](CCCCN)C(=O)N[C@@H](CCCCN)C(=O)N[C@@H](CCCNC(=N)N)C(=O)N[C@@H](Cc1ccc(O)cc1)C(=O)N[C@@H](CO)C(=O)N[C@@H](CCCNC(=N)N)C(=O)N[C@@H](CCC(=O)O)C(=O)N[C@@H](Cc1ccccc1)C(=O)N[C@@H](CC(C)C)C(=O)N[C@@H](CC(C)C)C(=O)NCC(=O)N[C@@H](Cc1ccccc1)C(N)=O [CP-eIF4G1-D5S] (H-RQIKIWFQNRRMKWKKGGSKKRYSREFLLGF-NH2; N-terminus assumed) | do not trigger eIF4E degradation | minimal effects | ≥ 35 | ≥ 25 | ≥ 16.10 |
| N'-RQIKIWFQNRRMKWKKGGSMTVEEMDSWIKSWDQR-C' [CP-CBLock] | do not trigger eIF4E degradation | minimal effects |  |  |  |

From publication PMC12774438, “CBL ubiquitin ligase targets translation as a degrader E3” (Chemical Science, 2025)
